According to publication doi:10.1101/2024.08.25.609621 (bioRxiv, 2024):
Several values for one entry are separate records, joined by “and”; a condition that tells them apart may be missing. Identical values can stand only once. Entries after “also recorded” stand apart in the source; their conditions may differ. Like-named read-outs stand apart in the source and are kept apart here.

Experiments:
[1] = target: SARS-CoV-2 NSP3 macrodomain (Mac1) (Severe acute respiratory syndrome coronavirus 2, UniProt P0DTD1); experiment: biochemical; type: binding; details: for Hill slope: HTRF dose-response fit, Mac1; for SARS CoV-2 macrodomain HTRF assay: Hillslope: dose-response fit
[2] = target: SARS-CoV-2 NSP3 macrodomain (Mac1), P43 crystal form (Severe acute respiratory syndrome coronavirus 2, UniProt P0DTD1); type: binding; details: for 1-BDC: PanDDA background density correction; for PanDDA run, DMSO background map: 1-BDC / 1-BDC (PanDDA run, DMSO background map): event 1; for Pandda run, overall: Hit / Pandda run, overall: Modeled / Pandda run, overall: Modeling comment / Hit (PanDDA run, overall): P43 crystals; for Total number of conformations: ligand conformations modeled in Mac1 crystal structure; for 2*(1-BDC) (%): occupancy estimate from PanDDA BDC; for X-ray crystallography: Binding site: site where the ligand is bound in the X-ray crystal structure; for Comment: comment on ligand modeling / Phe132 loop density
[3] = crystal soak concentration 10 mM

SMILES	Hill slope [1]	SARS CoV-2 macrodomain HTRF assay: Hillslope [1]	Occupancy difference (refined_occupancy - 2*(1-BDC)) [2]	Refined ligand occupancy (%) [2] [%]	1-BDC [2]	PanDDA run, DMSO background map: 1-BDC [2, 3]	Pandda run, overall: Hit [2, 3]	Pandda run, overall: Modeled [2, 3]	Pandda run, overall: Modeling comment [2, 3]	PanDDA run, DMSO background map: Hit [2, 3]	PanDDA run, DMSO background map: Modeled [2, 3]	Total number of conformations [2]	2*(1-BDC) (%) [2] [%]	X-ray crystallography: Binding site [2]	PanDDA run, DMSO background map: 1-BDC [2]	Hit (PanDDA run, overall) ([2]; crystal soak 10 mM)	Hit (PanDDA run, DMSO background map) ([2]; crystal soak 10 mM)	1-BDC (PanDDA run, DMSO background map) ([2]; crystal soak 10 mM)	other results
CC(C)(O)C1C2CCCCC2CN1c1ncnc2[nH]ccc12 (stereo not drawn) [AVI-4127]	1.3	1.3	10	60	0.25	0.23 and 0.25	TRUE	TRUE	Duplicate, not modeled	TRUE	TRUE	2	50	Adenosine					Phe132 loop open state [2]: TRUE
CC(C)(O)C1C2CCC2CN1c1ncnc2[nH]ccc12 (stereo not drawn) [AVI-4128]	1.2	1.2	20	60	0.2	0.27 and 0.2	TRUE	TRUE	Duplicate, not modeled; also recorded: Weak density for open conformation	TRUE	TRUE	1	40	Adenosine					Comment [2]: Weak density for open conformation
Cc1c[nH]c2ncnc(NCC3(O)CCOCC3)c12 [AVI-4194, 4-(((5-methyl-7H-pyrrolo[2,3-d]pyrimidin-4-yl)amino)methyl)tetrahydro-2H-pyran-4-ol]	1.3	1.3	0	18	0.09	0.13 and 0.09	TRUE	TRUE	Duplicate, not modeled	TRUE	TRUE	1	18	Adenosine					
Cc1c[nH]c2ncnc(NCC3(O)CCSCC3)c12 [AVI-4195, 4-(((5-methyl-7H-pyrrolo[2,3-d]pyrimidin-4-yl)amino)methyl)tetrahydro-2H-thiopyran-4-ol]	1.2	1.2	0	28	0.14	0.14	TRUE	TRUE	Duplicate, not modeled	TRUE	TRUE	1	28	Adenosine					
CC1CCCC(O)(CNc2ncnc3[nH]ccc23)C1 (stereo not drawn) [AVI-4307]	1.0	1.0	0	34	0.17							1	34	Adenosine	0.26	TRUE	TRUE	0.17	
OC1(CNc2ncnc3[nH]ccc23)CCC(F)(F)CC1 [AVI-4308]	1.2	1.2	0	30	0.15							1	30	Adenosine	0.16	TRUE	TRUE	0.15	
OC1(CNc2ncnc3[nH]ccc23)CCCC(C(F)(F)F)C1 (stereo not drawn) [AVI-4309]	1.4	1.4	0	40	0.2							1	40	Adenosine	0.2	TRUE	TRUE	0.21	
CC1(C)CCC(O)(CNc2ncnc3[nH]ccc23)CC1 [AVI-4310]	1.3	1.3													0.17	TRUE	TRUE	0.14	Modeling comment (PanDDA run, overall) ([2]; crystal soak 10 mM): Weak density, not modeled
OC1(CNc2ncnc3[nH]ccc23)CCCOC1 (stereo not drawn) [AVI-4311]	1.4	1.4	0	50	0.25							1	50	Adenosine	0.3	TRUE	TRUE	0.25	
CC1CCC(O)(CNc2ncnc3[nH]ccc23)CC1 (stereo not drawn) [AVI-4312]	1.2	1.2	0	44	0.22							1	44	Adenosine	0.22 and 0.3				
OC1(CNc2ncnc3[nH]ccc23)COC2CC1C2 (stereo not drawn) [AVI-4313]	1.2	1.2	0	38	0.19							1	38	Adenosine	0.19 and 0.2				
OC1(CNc2ncnc3[nH]ccc23)CCOCC1 [AVI-4314]	1.2	1.2	0	30	0.15							1	30	Adenosine	0.15 and 0.16				
O=S1(=O)CCCC(O)(CNc2ncnc3[nH]ccc23)C1 (stereo not drawn) [AVI-4317]	1.2	1.2	14	100	0.43							1	86	Adenosine	0.43 and 0.45				Comment [2]: High occupancy, use manual refinement, DMSO
